From US7138410B2, “Aza-bicyclic N-biarylamides with affinity for the α7 nicotinic acetylcholine receptor” (Bayer HealthCare AG, priority 2002, dated 2006)
Structures can show the parent of a compound that is named as a salt.

The molecules below were run against T1, α7 nAChR (Rattus norvegicus, UniProt Q05941) (assay: Affinity for α7 nAChR by inhibition of [3H]-methyllycaconitine binding to rat brain membranes). Details: not given.
T1 construct: Rat brain tissue (hippocampus or whole brain) is homogenized in homogenization buffer; from tissue; host or cells: rat brain (hippocampus or whole brain), P2 membrane fraction
T1 sequence (Q05941 23-502): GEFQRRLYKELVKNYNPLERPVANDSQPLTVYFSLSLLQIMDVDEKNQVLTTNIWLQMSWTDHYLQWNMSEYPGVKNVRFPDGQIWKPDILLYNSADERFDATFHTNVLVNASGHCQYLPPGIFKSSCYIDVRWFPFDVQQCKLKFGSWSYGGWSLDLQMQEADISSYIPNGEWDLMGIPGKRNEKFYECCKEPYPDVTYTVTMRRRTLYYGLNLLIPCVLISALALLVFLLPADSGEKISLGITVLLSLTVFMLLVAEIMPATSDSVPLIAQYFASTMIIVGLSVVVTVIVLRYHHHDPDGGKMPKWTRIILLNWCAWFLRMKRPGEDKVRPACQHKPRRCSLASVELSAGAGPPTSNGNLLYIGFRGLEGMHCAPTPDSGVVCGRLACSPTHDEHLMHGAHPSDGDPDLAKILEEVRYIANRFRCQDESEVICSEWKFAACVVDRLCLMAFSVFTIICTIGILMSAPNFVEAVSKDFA
Experimental: 1. Determination of the Affinity of Test Substances for α7 nAChR by Inhibition of [^3H]-methyllycaconitine Binding to Rat Brain Membranes
The [^3H]-methyllycaconitine binding assay is a modification of the method described by Davies et al. (Neuropharmacol. 1999, 38, 679–690).
Rat brain tissue (hippocampus or whole brain) is homogenized in homogenization buffer (10% w/v, 0.32 M sucrose, 1 mM EDTA, 0.1 mM phenylmethylsulfonyl fluoride (PMSF), 0.01% (w/v) NaN3, pH 7.4, 4° C.) at 600 rpm in a glass homogenizer. The homogenate is centrifuged (1000×g, 4° C., 10 min) and the supernatant is removed. The pellet is resuspended (20% w/v) and the suspension is centrifuged (1000×g, 4° C., 10 min). The two supernatants are combined and centrifuged (15 000×g, 4° C., 30 min). The pellet obtained in this way is referred to as the P2 fraction.
The P2 pellet is washed twice with binding buffer (50 mM Tris-HCl, 1 mM MgCl2, 120 mM NaCl, 5 mM KCl, 2 mM CaCl2, pH 7.4), and centrifuged (15 000×g, 4° C., 30 min).
The P2 membranes are resuspended in binding buffer and incubated in a volume of 250 μl (amount of membrane protein 0.1–0.5 mg) in the presence of 1–5 nM [^3H]-methyllycaconitine, 0.1% (w/v) BSA (bovine serum albumin) and various concentrations of the test substance at 21° C. for 2.5 h. The nonspecific binding is determined by incubation in the presence of 1 μM α-bungarotoxin or 100 μM nicotine or 10 μM MLA (methyllycaconitine).
The incubation is stopped by adding 4 ml of PBS (20 mM Na2HPO4, 5 mM KH2PO4, 150 mM NaCl, pH 7.4, 4° C.) and filtering through type A/E glass fibre filters (Gelman Sciences) which have previously been placed in 0.3% (v/v) polyethyleneimine (PEI) for 3 h. The filters are washed twice with 4 ml of PBS (4° C.), and the bound radioactivity is determined by scintillation measurement. All the assays are carried out in triplicate. The dissociation constant Ki of the test substance is determined from the IC50 of the compounds (concentration of the test substance at which 50% of the ligand bound to the receptor is displaced), the dissociation constant KD and the concentration L of [^3H]-methyllycaconitine using the equation Ki=IC50/(1+L/KD).
Work on `O=C(Nc1ccc(-c2ccc(CO)c(F)c2)cc1)[C@H]1CN2CCC1CC2` [Example 22, (3R)-N-[4′-(Hydroxymethyl)-3′-fluoro-1,1′-biphenyl-4-yl]-1-azabicyclo[2.2.2]octane-3-carboxamide] yielded a Ki of 58 nM. Work on `NC(=O)c1ccc(-c2ccc(NC(=O)[C@H]3CN4CCC3CC4)cc2)cc1` [Example 21, (3R)-N-[4′-(Aminocarbonyl)-1,1′-biphenyl-4-yl]-1-azabicyclo[2.2.2]octane-3-carboxamide Hydrochloride] yielded a Ki of 98 nM. With `CNC(=O)OCc1ccc(-c2ccc(NC(=O)[C@H]3CN4CCC3CC4)cc2)cc1` [Example 23, (4′-{[(3R)-1-Azabicyclo[2.2.2]oct-3-ylcarbonyl]amino}-1,1′-biphenyl-4-yl)methyl Methylcarbamate] the Ki was 39 nM. For `O=C(Nc1ccc(-c2ccc(CO)cc2)cc1)[C@@H]1CN2CCC1CC2` [Example 15, (3S)-N-[4′-(Hydroxymethyl)-1,1′-biphenyl-4-yl]-1-azabicyclo[2.2.2]octane-3-carboxamide Hydrochloride], the Ki was 39 nM. Molecule `CC(C)(O)c1ccc(-c2ccc(NC(=O)[C@H]3CN4CCC3CC4)cc2)cc1` [Example 20, (3R)-N-[4′-(1-Hydroxy-1-methylethyl)-1,1′-biphenyl-4-yl]-1-azabicyclo[2.2.2]octane-3-carboxamide] has a Ki of 10 nM. In the case of `O=C(Nc1ccc(-c2ccc(CO)cc2)cc1)[C@H]1CN2CCC1CC2` [Example 14, (3R)-N-[4′-(Hydroxymethyl)-1,1′-biphenyl-4-yl]-1-azabicyclo[2.2.2]octane-3-carboxamide Hydrochloride], the Ki is reported as 20 nM. Molecule `O=C(CC1CN2CCC1CC2)Nc1cccc(-c2ccc(CO)cc2)c1` (stereo not shown) [Example 9, 2-(1-Azabicyclo[2.2.2]oct-3-yl)-N-[4′-(hydroxymethyl)-1,1′-biphenyl-3-yl]acetamide Hydrochloride] has a Ki of 519 nM.

Same assay, conditions: [3H]-methyllycaconitine displacement, rat brain P2 membranes, 21° C., 2.5 h; Ki=IC50/(1+L/KD); read-out: Ki
Work on `CC(C)NC(=O)OCc1ccc(-c2ccc(NC(=O)[C@H]3CN4CCC3CC4)cc2)cc1` [Example 24, (4′-{[(3R)-1-Azabicyclo[2.2.2]oct-3-ylcarbonyl]amino}-1,1′-biphenyl-4-yl)methyl Isopropylcarbamate] yielded a Ki of 230 nM. With `CC(=O)c1ccc(-c2ccc(NC(=O)CC3CN4CCC3CC4)cc2)cc1` (stereo not shown) [Example 26] the Ki was 310 nM. Work on `CC(=O)c1ccccc1-c1ccc(NC(=O)CC2CN3CCC2CC3)cc1` (stereo not shown) [Example 31] yielded a Ki of 420 nM.
